Measurements taken from patent US20240018161A1, “MODULATORS OF CYSTIC FIBROSIS TRANSMEMBRANE CONDUCTANCE REGULATOR” (VERTEX PHARMACEUTICALS INCORPORATED, priority 2020, published 2024).

Biological target: CFTR-mediated chloride transport in human intestinal epithelial enteroid cells (Homo sapiens, UniProt P13569)
Assay: Membrane potential dye, Enteroid Assay A
Assay type: cell-based
Conditions: Enteroid Assay A; for EC50: read-out: Ent. A EC50
Summary of the method: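 Membrane potential dye (20 μM methyl oxonol, with 30 μM CaCCinh-A01 and 30 μM Chicago Sky Blue) loaded 25 min at room temperature into ROCK-inhibitor-seeded human enteroid cells. Chloride-free stimulation buffer triggered transport, followed by 15 min fluorescence. % Activity relative to 3 μM/3 μM/300 nM triple-combination control.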

CFTR-mediated chloride transport in human intestinal epithelial enteroid cells, sequence (P13569 with tags, fused parts or gaps DEL508-508): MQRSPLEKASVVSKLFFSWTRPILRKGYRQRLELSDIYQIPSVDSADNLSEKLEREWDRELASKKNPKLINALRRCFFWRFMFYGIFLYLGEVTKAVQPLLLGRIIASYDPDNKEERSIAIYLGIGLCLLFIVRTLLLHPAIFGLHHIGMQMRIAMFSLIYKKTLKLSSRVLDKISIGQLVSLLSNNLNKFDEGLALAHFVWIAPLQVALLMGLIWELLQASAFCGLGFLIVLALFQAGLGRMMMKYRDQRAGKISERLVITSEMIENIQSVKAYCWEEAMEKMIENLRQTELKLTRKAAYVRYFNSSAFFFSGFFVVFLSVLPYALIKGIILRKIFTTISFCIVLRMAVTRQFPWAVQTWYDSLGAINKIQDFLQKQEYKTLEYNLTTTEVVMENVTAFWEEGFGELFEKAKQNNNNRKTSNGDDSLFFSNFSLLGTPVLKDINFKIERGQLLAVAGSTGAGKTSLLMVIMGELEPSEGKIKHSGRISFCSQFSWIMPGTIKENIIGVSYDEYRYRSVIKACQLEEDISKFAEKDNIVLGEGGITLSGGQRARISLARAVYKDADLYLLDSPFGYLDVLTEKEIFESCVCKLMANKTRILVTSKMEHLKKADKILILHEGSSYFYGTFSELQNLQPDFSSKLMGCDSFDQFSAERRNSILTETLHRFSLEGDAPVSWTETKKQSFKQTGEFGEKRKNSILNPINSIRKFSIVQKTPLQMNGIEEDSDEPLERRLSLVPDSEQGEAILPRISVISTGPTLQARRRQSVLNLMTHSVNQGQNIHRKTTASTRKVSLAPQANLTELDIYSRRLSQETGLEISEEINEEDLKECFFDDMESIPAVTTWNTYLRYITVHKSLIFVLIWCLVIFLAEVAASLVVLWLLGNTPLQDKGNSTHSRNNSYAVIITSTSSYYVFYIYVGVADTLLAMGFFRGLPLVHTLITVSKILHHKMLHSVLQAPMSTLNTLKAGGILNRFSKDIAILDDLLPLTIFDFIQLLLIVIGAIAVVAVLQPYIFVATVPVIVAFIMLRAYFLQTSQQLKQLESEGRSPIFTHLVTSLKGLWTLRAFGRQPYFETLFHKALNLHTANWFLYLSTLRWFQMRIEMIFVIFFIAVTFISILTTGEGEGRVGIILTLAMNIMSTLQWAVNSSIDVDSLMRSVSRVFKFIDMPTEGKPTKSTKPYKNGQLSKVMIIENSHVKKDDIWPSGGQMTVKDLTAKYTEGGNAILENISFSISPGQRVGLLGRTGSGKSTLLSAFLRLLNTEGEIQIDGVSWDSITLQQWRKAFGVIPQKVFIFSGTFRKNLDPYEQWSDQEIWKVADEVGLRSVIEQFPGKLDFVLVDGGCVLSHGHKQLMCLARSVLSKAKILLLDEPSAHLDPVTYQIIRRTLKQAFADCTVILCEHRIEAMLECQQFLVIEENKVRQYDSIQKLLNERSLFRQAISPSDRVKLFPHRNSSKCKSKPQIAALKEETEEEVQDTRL

Row | Ent. A Max Activity (%) | EC50 [nM] | SMILES
1 | ++ (++ is 30-60%) | < 1000 | Cc1cccc(C)c1-c1cc2nc(n1)NS(=O)(=O)c1cccc(c1)C(=O)N1C[C@@H](CN(C)C[C@@H]1CCC(C)C)O2 [Compound 131, (16R,20S)-12-(2,6-Dimethylphenyl)-18-methyl-20-(3-methylbutyl)-15-oxa-8λ^6-thia-1,9,11,18,22-pentaazatetracyclo[14.4.1.13,7.110,14]tricosa-3(23),4,6,10(22),11,13-hexaene-2,8,8-trione]
2 | +++ (+++ is >600%) | < 1000 | Cc1cccc(C)c1-c1cc2nc(n1)NS(=O)(=O)c1cccc(c1)C(=O)N1C[C@@H](CNC[C@@H]1C(C)C)O2 [Compound 133, (16R,20S)-12-(2,6-Dimethylphenyl)-20-(propan-2-yl)-15-oxa-8λ^6-thia-1,9,11,18,22-pentaazatetracyclo[14.4.1.13,7.110,14]tricosa-3(23),4,6,10(22),11,13-hexaene-2,8,8-trione]
3 | ++ (++ is 30-60%) | < 1000 | Cc1cccc(C)c1-c1cc2nc(n1)NS(=O)(=O)c1cccc(c1)C(=O)N1C[C@@H](CNC[C@@H]1CC(C)(C)C)O2 [Compound 135, (16R,20S)-12-(2,6-Dimethylphenyl)-20-(2,2-dimethylpropyl)-15-oxa-8λ^6-thia-1,9,11,18,22-pentaazatetracyclo[14.4.1.13,7.110,14]tricosa-3(23),4,6,10(22),11,13-hexaene-2,8,8-trione]
4 | +++ (+++ is >600%) | < 1000 | Cc1cccc(C)c1-c1cc2nc(n1)NS(=O)(=O)c1cccc(c1)C(=O)N1C[C@@H](CN(C)C[C@@H]1CC(C)(C)C)O2 [Compound 136, (16R,20S)-12-(2,6-Dimethylphenyl)-20-(2,2-dimethylpropyl)-18-methyl-15-oxa-8λ^6-thia-1,9,11,18,22-pentaazatetracyclo[14.4.1.13,7.110,14]tricosa-3(23),4,6,10(22),11,13-hexaene-2,8,8-trione]
5 | ++ (++ is 30-60%) | < 1000 | Cc1cccc(C)c1-c1cc2nc(n1)NS(=O)(=O)c1cccc(c1)C(=O)N1C[C@@H](CN(C3CCCC3)C[C@H]1CC(C)C)O2 [Compound 138]
6 | +++ (+++ is >600%) | < 1000 | Cc1cccc(C)c1-c1cc2nc(n1)NS(=O)(=O)c1cccc(c1)C(=O)N1C[C@@H](CN(C(C)C)C[C@H]1CC(C)C)O2 [Compound 139]
7 | +++ (+++ is >600%) | < 1000 | Cc1cccc(C)c1-c1cc2nc(n1)NS(=O)(=O)c1cccc(c1)C(=O)N1C[C@@H](CN(C3CC4(CCCCC4)C3)C[C@H]1CC(C)C)O2 [Compound 140]
8 | +++ (+++ is >600%) | < 1000 | Cc1cccc(C)c1-c1cc2nc(n1)NS(=O)(=O)c1cccc(c1)C(=O)N1C[C@@H](CN(C3CC4(CCCC4)C3)C[C@H]1CC(C)C)O2 [Compound 141]
9 | +++ (+++ is >600%) | < 1000 | Cc1cccc(C)c1-c1cc2nc(n1)NS(=O)(=O)c1cccc(c1)C(=O)N1C[C@@H](CN(C3CCC(F)(F)CC3)C[C@H]1CC(C)C)O2 [Compound 142]
10 | +++ (+++ is >600%) | < 1000 | Cc1cccc(C)c1-c1cc2nc(n1)NS(=O)(=O)c1cccc(c1)C(=O)N1C[C@@H](CN(CCC(C)(C)C)C[C@H]1CC(C)C)O2 [Compound 143]
11 | ++ (++ is 30-60%) | < 1000 | Cc1cccc(C)c1-c1cc2nc(n1)NS(=O)(=O)c1cccc(c1)CN1C[C@@H](CN(CCC(C)(C)C)CC1=O)O2 [Compound 145]
12 | +++ (+++ is >600%) | < 1000 | Cc1cccc(C)c1-c1cc2nc(n1)NS(=O)(=O)c1cccc(c1)C(=O)N1C[C@@H](CN(C3CCC(F)(F)CC3)C[C@@H]1C(C)C)O2 [Compound 146]
13 | +++ (+++ is >600%) | < 1000 | Cc1cccc(C)c1-c1cc2nc(n1)NS(=O)(=O)c1cccc(c1)C(=O)N1C[C@@H](CN(C3CC4(CCCC4)C3)C[C@@H]1C(C)C)O2 [Compound 147]
14 | +++ (+++ is >600%) | < 1000 | Cc1cccc(C)c1-c1cc2nc(n1)NS(=O)(=O)c1cccc(c1)C(=O)N1C[C@@H](CN(C3CC4(CCCCC4)C3)C[C@@H]1C(C)C)O2 [Compound 148]

Further lines, the compound ahead of its results:

Row | SMILES | Ent. A Max Activity (%) | EC50 [nM]
15 | Cc1cccc(C)c1-c1cc2nc(n1)NS(=O)(=O)c1cccc(c1)C(=O)N1C[C@@H](CN(C)C[C@H]1CC(C)C)O2 [Compound 103, (16R,20R)-12-(2,6-Dimethylphenyl)-18-methyl-20-(2-methylpropyl)-15-oxa-8λ^6-thia-1,9,11,18,22-pentaazatetracyclo[14.4.1.13,7.110,14]tricosa-3(23),4,6,10(22),11,13-hexaene-2,8,8-trione] | +++ (+++ is >600%) | < 1000
16 | Cc1cccc(C)c1-c1cc2nc(n1)NS(=O)(=O)c1cccc(c1)C(=O)N1C[C@@H](CN(CC(C)(C)C)C[C@H]1CC(C)C)O2 [Compound 104, (16R,20R)-12-(2,6-Dimethylphenyl)-18-(2,2-dimethylpropyl)-20-(2-methylpropyl)-15-oxa-8λ^6-thia-1,9,11,18,22-pentaazatetracyclo[14.4.1.13,7.110,14]tricosa-3(23),4,6,10,12,14(22)-hexaene-2,8,8-trione] | +++ (+++ is >600%) | < 1000
17 | Cc1cccc(C)c1-c1cc2nc(n1)NS(=O)(=O)c1cccc(c1)C(=O)N1C[C@H](CC(C)C)NC[C@H](C1)O2 [Compound 108, (16R,19S)-12-(2,6-Dimethylphenyl)-19-(2-methylpropyl)-15-oxa-8λ^6-thia-1,9,11,18,22-pentaazatetracyclo[14.4.1.13,7.110,14]tricosa-3(23),4,6,10(22),11,13-hexaene-2,8,8-trione] | +++ (+++ is >600%) | < 1000
18 | Cc1cccc(C)c1-c1cc2nc(n1)NS(=O)(=O)c1cccc(c1)C(=O)N1C[C@@H](CN(C3CCC(F)(F)CC3)[C@@H](CC(C)C)C1)O2 [Compound 110, (16R,19S)-18-(4,4-Difluorocyclohexyl)-12-(2,6-dimethylphenyl)-19-(2-methylpropyl)-15-oxa-8λ^6-thia-1,9,11,18,22-pentaazatetracyclo[14.4.1.13,7.110,14]tricosa-3(23),4,6,10(22),11,13-hexaene-2,8,8-trione] | +++ (+++ is >600%) | < 1000
19 | Cc1cccc(C)c1-c1cc2nc(n1)NS(=O)(=O)c1cccc(c1)C(=O)N1CCN(C(=O)OC(C)(C)C)[C@@H](CC(C)C)[C@H](C1)O2 [Compound 117, tert-Butyl (16S,17S)-12-(2,6-dimethylphenyl)-17-(2-methylpropyl)-2,8,8-trioxo-15-oxa-8λ^6-thia-1,9,11,18,22-pentaazatetracyclo[14.4.1.13,7.110,14]tricosa-3(23),4,6,10(22),11,13-hexaene-18-carboxylate] | +++ (+++ is >600%) | < 1000
20 | Cc1cccc(C)c1-c1cc2nc(n1)NS(=O)(=O)c1cccc(c1)C(=O)N1C[C@@H](CNC[C@H]1C(C)C)O2 [Compound 123, (16R,20R)-12-(2,6-Dimethylphenyl)-20-(propan-2-yl)-15-oxa-8λ^6-thia-1,9,11,18,22-pentaazatetracyclo[14.4.1.13,7.110,14]tricosa-3(23),4,6,10(22),11,13-hexaene-2,8,8-trione] | ++ (++ is 30-60%) | 1000 to 3000
21 | Cc1cccc(C)c1-c1cc2nc(n1)NS(=O)(=O)c1cccc(c1)C(=O)N1C[C@@H](CN(C)C[C@H]1C(C)C)O2 [Compound 125, (16R,20R)-12-(2,6-Dimethylphenyl)-18-methyl-20-(propan-2-yl)-15-oxa-8λ^6-thia-1,9,11,18,22-pentaazatetracyclo[14.4.1.13,7.110,14]tricosa-3(23),4,6,10(22),11,13-hexaene-2,8,8-trione] | +++ (+++ is >600%) | < 1000
22 | Cc1cccc(C)c1-c1cc2nc(n1)NS(=O)(=O)c1cccc(c1)C(=O)N1C[C@@H](CN(C3CCC(F)(F)CC3)C[C@H]1C(C)C)O2 [Compound 126, (16R,20R)-18-(4,4-Difluorocyclohexyl)-12-(2,6-dimethylphenyl)-20-(propan-2-yl)-15-oxa-8λ^6-thia-1,9,11,18,22-pentaazatetracyclo[14.4.1.13,7.110,14]tricosa-3(23),4,6,10(22),11,13-hexaene-2,8,8-trione] | +++ (+++ is >600%) | < 1000
23 | Cc1cccc(C)c1-c1cc2nc(n1)NS(=O)(=O)c1cccc(c1)C(=O)N1C[C@@H](CN(C3CC4(CCCC4)C3)C[C@H]1C(C)C)O2 [Compound 127, (16R,20R)-12-(2,6-dimethylphenyl)-20-(propan-2-yl)-18-{spiro[3.4]octan-2-yl}-15-oxa-8λ^6-thia-1,9,11,18,22-pentaazatetracyclo[14.4.1.13,7.110,14]tricosa-3(23),4,6,10(22),11,13-hexaene-2,8,8-trione] | ++ (++ is 30-60%) | < 1000
24 | Cc1cccc(C)c1-c1cc2nc(n1)NS(=O)(=O)c1cccc(c1)C(=O)N1C[C@@H](CN(C3CC4(CCCCC4)C3)C[C@H]1C(C)C)O2 [Compound 128, (16R,20R)-12-(2,6-dimethylphenyl)-20-(propan-2-yl)-18-{spiro[3.5]nonan-2-yl}-15-oxa-8λ^6-thia-1,9,11,18,22-pentaazatetracyclo[14.4.1.13,7.110,14]tricosa-3(23),4,6,10(22),11,13-hexaene-2,8,8-trione] | ++ (++ is 30-60%) | < 1000
25 | Cc1cccc(C)c1-c1cc2nc(n1)NS(=O)(=O)c1cccc(c1)C(=O)N1C[C@@H](CNC[C@@H]1CCC(C)C)O2 [Compound 130, (16R,20S)-12-(2,6-Dimethylphenyl)-20-(3-methylbutyl)-15-oxa-8λ^6-thia-1,9,11,18,22-pentaazatetracyclo[14.4.1.13,7.110,14]tricosa-3(23),4,6,10(22),11,13-hexaene-2,8,8-trione] | +++ (+++ is >600%) | < 1000
